In this assay the target is T1, Flag/GST-tagged recombinant human B-Raf (Homo sapiens, UniProt P15056).
T1 construct: Flag; GST; made in house; host or cells: Sf9 insect cells (B-Raf); E. coli (MEK1-GST)
In words: B-Raf kinase assay (phosphorylation of GST-MEK1, phospho-MEK1 antibody/Europium detection). Type of assay: biochemical. Conditions: B-Raf IC50 Data for compounds of Formula A. As for the experimental part:
B-Raf1 Kinase Assay Procedure: B-Raf-1 is used to phosphorylate GST-MEK1.
• 1. Assay Dilution Buffer (ADB): 20 mM MOPS, pH 7.2, 25 mM β-glycerol phosphate, 5 mM EGTA, 1 mM sodium orthovanadate, 1 mM dithiothreitol, 0.01% Triton X-100. • 2. Magnesium/ATP Cocktail: ADB solution (minus Triton X-100) plus 200 μM cold ATP and 40 mM magnesium chloride. • 4. Active Kinase: Active B-Raf: Used at 0.2 nM per assay point. • 5. […] TBST—Tris (50 mM, pH 7.5), NaCl (150 mM), Tween-20 (0.05%) • 7. Anti-GST Ab (GE) • 8. Anti pMEK Ab (Upstate) • 9. Anti-rabbit Ab/Europium conjugate (Wallac).
B-Raf Assay Procedure: • 1. Added 25 μL of ADB containing B-Raf and Mek per assay (i.e. per well of a 96 well plate) • 2. Added 25 μL of 0.2 mM ATP and 40 mM magnesium chloride in Magnesuium/ATP Cocktail. • 3. Incubated for 45 minutes at RT with occasional shaking. • 4. Transferred this mixture to an anti-GST Ab coated 96 well plate (Nunc Immunosorb plates coated o/n with a-GST. Plate freshly washed 3×with TBS-T before use. • 5. Incubated o/n at […] in cold room. • 6. Washed 3× with TBST, ed Anti-Phospho MEK1 (1:1000, dilution depended upon lot) • 7. Incubated for 60 minutes at RT in a shaking incubator • 8. Washed 3× with TBST, add Anti-rabbit Ab/Europium conjugate (Wallac) (1:500, dilution depended upon lot) • 9. Incubated for 60 minutes at RT on a platform shaker. • 10. Washed plate 3× with TBS-T • 11. Added 100 μL of Wallac Delfia Enhancement Solution and agitated for 10 minutes. • 12. Read plates in Wallac Victor model Plate Reader. • 13.
The % inhibition was determined for each compound concentration.

Molecules are shown by their SMILES. Where two headings read alike, the source gives them in different places.

T1 sequence (P15056 whole entry): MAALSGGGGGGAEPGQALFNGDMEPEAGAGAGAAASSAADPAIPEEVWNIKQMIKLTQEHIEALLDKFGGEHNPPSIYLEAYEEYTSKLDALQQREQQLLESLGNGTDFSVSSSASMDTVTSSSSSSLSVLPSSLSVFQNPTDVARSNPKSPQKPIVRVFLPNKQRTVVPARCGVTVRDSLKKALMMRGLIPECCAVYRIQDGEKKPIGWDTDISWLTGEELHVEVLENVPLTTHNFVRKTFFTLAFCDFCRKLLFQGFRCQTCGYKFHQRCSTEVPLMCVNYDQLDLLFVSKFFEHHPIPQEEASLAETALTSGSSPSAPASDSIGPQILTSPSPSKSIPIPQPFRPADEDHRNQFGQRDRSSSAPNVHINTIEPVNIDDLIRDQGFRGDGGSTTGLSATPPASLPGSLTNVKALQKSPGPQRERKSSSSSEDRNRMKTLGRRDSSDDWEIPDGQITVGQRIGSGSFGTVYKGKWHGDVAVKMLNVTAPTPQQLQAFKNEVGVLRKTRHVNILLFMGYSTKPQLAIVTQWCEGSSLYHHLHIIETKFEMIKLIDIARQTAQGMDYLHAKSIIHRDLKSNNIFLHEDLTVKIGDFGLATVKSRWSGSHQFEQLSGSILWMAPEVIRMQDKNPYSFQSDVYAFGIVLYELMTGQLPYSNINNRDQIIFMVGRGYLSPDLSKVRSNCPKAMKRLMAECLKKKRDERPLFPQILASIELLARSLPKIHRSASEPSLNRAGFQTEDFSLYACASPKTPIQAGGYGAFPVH

One may read the IC50 as the midpoint of a concentration-inhibition curve. In the case of `CCN1C2CCC1CC(c1ccnc3c(-c4ccnc(OC)c4)c(-c4ccncc4)nn13)C2` (stereo not drawn) [Example 20, 7-(8-Ethyl-8-azabicyclo[3.2.1]octan-3-yl)-3-(2-methoxypyridin-4-yl)-2-(pyridin-4-yl)pyrazolo[1,5-a]pyrimidine], the IC50 (read-out: Mean IC50) was determined as 0.835 µM.

With `CCN1C2CCC1CC(c1ccnc3c(-c4ccnc(O)c4)c(-c4ccncc4)nn13)C2` (stereo not drawn) [Example 21, 4-(7-(8-Ethyl-8-azabicyclo[3.2.1]octan-3-yl)-2-(pyridin-4-yl)pyrazolo[1,5-a]pyrimidin-3-yl)pyridin-2-ol], the IC50 (read-out: Mean IC50) is > 1 µM.

Turning to `CCN1C2CCC1CC(c1ccnc3c(-c4ccc(N)cc4)c(-c4ccncc4)nn13)C2` (stereo not drawn) [Example 22, 4-(7-(8-Ethyl-8-azabicyclo[3.2.1]octan-3-yl)-2-(pyridin-4-yl)pyrazolo[1,5-a]pyrimidin-3-yl)aniline], the IC50 (read-out: Mean IC50) is > 1 µM.

With `CCN1C2CCC1CC(c1ccnc3c(-c4ccc(NC(N)=O)cc4)c(-c4ccncc4)nn13)C2` (stereo not drawn) [Example 23, 1-(4-(7-(8-Ethyl-8-azabicyclo[3.2.1]octan-3-yl)-2-(pyridin-4-yl)pyrazolo[1,5-a]pyrimidin-3-yl)phenyl)urea], for the setting “read-out: Mean IC50”, the IC50 was > 1 µM.

For `CN1C2CCC1CN(c1ccc(-c3ccnc4c(-c5cccc(O)c5)c(-c5ccncc5)nn34)cc1)C2` [Example 25, 3-{7-[4-(8-Methyl-3,8-diaza-bicyclo[3.2.1]oct-3-yl)-phenyl]-2-pyridin-4-yl-pyrazolo[1,5-a]pyrimidin-3-yl}-phenol], the IC50 (read-out: Mean IC50) came to 0.001 µM.

As to `COc1cc(-c2c(-c3ccncc3)nn3c(-c4ccc(N5CC6CCC(C5)N6C)cc4)ccnc23)ccc1Cl` [Example 26, 3-(4-Chloro-3-methoxy-phenyl)-7-[4-(8-methyl-3,8-diaza-bicyclo[3.2.1]oct-3-yl)-phenyl]-2-pyridin-4-yl-pyrazolo[1,5-a]pyrimidine], for the setting “Mean IC50 (uM)”, the IC50 came to 0.01 µM.

On to `CN1C2CCC1CN(c1ccc(-c3ccnc4c(-c5ccc(Cl)c(O)c5)c(-c5ccncc5)nn34)cc1)C2` [Example 27, 2-Chloro-5-{7-[4-(8-methyl-3,8-diaza-bicyclo[3.2.1]oct-3-yl)-phenyl]-2-pyridin-4-yl-pyrazolo[1,5-a]pyrimidin-3-yl}-phenol], for which the IC50 (Mean IC50 (uM)) is < 0.0003 µM.

`COc1cccc(-c2c(-c3ccncc3)nn3c(-c4ccc(N5C[C@@H]6C[C@H]5CN6)cc4)ccnc23)c1` [Example 28, 7-[4-((1S,4S)-2,5-Diaza-bicyclo[2.2.1]hept-2-yl)-phenyl]-3-(3-methoxy-phenyl)-2-pyridin-4-yl-pyrazolo[1,5-a]pyrimidine]: the IC50 (read-out: Mean IC50) is 0.016 µM.

On to `Oc1cccc(-c2c(-c3ccncc3)nn3c(-c4ccc(N5C[C@@H]6C[C@H]5CN6)cc4)ccnc23)c1` [Example 29, 3-{7-[4-((1S,4S)-2,5-Diaza-bicyclo[2.2.1]hept-2-yl)-phenyl]-2-pyridin-4-yl-pyrazolo[1,5-a]pyrimidin-3-yl}-phenol], for which, for the setting “read-out: Mean IC50”, the IC50 was found to be 0.0005 µM.

Take `CN1C[C@@H]2C[C@H]1CN2c1ccc(-c2ccnc3c(-c4cccc(O)c4)c(-c4ccncc4)nn23)cc1` [Example 30, 3-{7-[4-((1S,4S)-5-Methyl-2,5-diaza-bicyclo[2.2.1]hept-2-yl)-phenyl]-2-pyridin-4-yl-pyrazolo[1,5-a]pyrimidin-3-yl}-phenol]: under “read-out: Mean IC50”, the IC50 was < 0.003 µM.

Consider `COc1cc(-c2c(-c3ccncc3)nn3c(-c4ccc(N5C[C@@H]6C[C@H]5CN6)cc4)ccnc23)ccc1Cl` [Example 31, 7-(4-((1S,4S)-2,5-Diaza-bicyclo[2.2.1]heptan-2-yl)phenyl)-3-(4-chloro-3-methoxyphenyl)-2-(pyridin-4-yl)pyrazolo[1,5-a]pyrimidine], for which the IC50 (read-out: Mean IC50) is 0.0018 µM.

For the compound `COc1cc(-c2c(-c3ccncc3)nn3c(-c4ccc(N5C[C@@H]6C[C@H]5CN6)cc4)ccnc23)ccc1F` [Example 32, 7-(4-((1S,4S)-2,5-Diaza-bicyclo[2.2.1]heptan-2-yl)phenyl)-3-(4-fluoro-3-methoxyphenyl)-2-(pyridin-4-yl)pyrazolo[1,5-a]pyrimidine], for the setting “read-out: Mean IC50”, the half-inhibitory concentration (IC50) was found to be 0.0087 µM.

`Oc1cc(-c2c(-c3ccncc3)nn3c(-c4ccc(N5C[C@@H]6C[C@H]5CN6)cc4)ccnc23)ccc1F` [Example 33, 5-(7-(4-((1S,4S)-2,5-Diazabicyclo[2.2.1]heptan-2-yl)phenyl)-2-(pyridin-4-yl)pyrazolo[1,5-a]pyrimidin-3-yl)-2-fluorophenol]: the half-inhibitory concentration (IC50) (read-out: Mean IC50) is < 0.0003 µM.

In the case of `CN1C[C@@H]2C[C@H]1CN2c1ccc(-c2ccnc3c(-c4cccc5[nH]ncc45)c(-c4ccncc4)nn23)cn1` [Example 34, 3-(1H-Indazol-4-yl)-7-(6-((1S,4S)-5-methyl-2,5-diazabicyclo[2.2.1]heptan-2-yl)pyridin-3-yl)-2-(pyridin-4-yl)pyrazolo[1,5-a]pyrimidine], the IC50 (read-out: Mean IC50) turned out to be 0.0023 µM.

Take `CN1C[C@@H]2C[C@H]1CN2c1ccc(-c2ccnc3c(-c4cccc5[nH]ncc45)c(-c4ccncc4)nn23)cc1` [Example 35, 3-(1H-indazol-4-yl)-7-(4-((1S,4S)-5-methyl-2,5-diazabicyclo[2.2.1]heptan-2-yl)phenyl)-2-(pyridin-4-yl)pyrazolo[1,5-a]pyrimidine]: the IC50 (read-out: Mean IC50) was 0.0015 µM.

Consider `COc1cccc(-c2c(-c3ccncc3)nn3c(-c4ccc(N5C[C@@H]6C[C@H]5CN6C)cc4)ccnc23)c1` [Example 36, 3-(3-Methoxyphenyl)-7-(4-((1S,4S)-5-methyl-2,5-diazabicyclo[2.2.1]heptan-2-yl)phenyl)-2-(pyridin-4-yl)pyrazolo[1,5-a]pyrimidine], for which the IC50 (read-out: Mean IC50) came out at 0.0082 µM.

For the compound `COc1cc(-c2c(-c3ccncc3)nn3c(-c4ccc(N5C[C@@H]6C[C@H]5CN6C)cc4)ccnc23)ccc1F` [Example 37, 3-(4-Fluoro-3-methoxyphenyl)-7-(4-((1S,4S)-5-methyl-2,5-diazabicyclo[2.2.1]heptan-2-yl)phenyl)-2-(pyridin-4-yl)pyrazolo[1,5-a]pyrimidine], the IC50 (read-out: Mean IC50) was 0.021 µM.

Turning to `CCN1C[C@@H]2C[C@H]1CN2c1ccc(-c2ccnc3c(-c4ccc(F)c(O)c4)c(-c4ccncc4)nn23)cc1` [Example 38, 5-(7-(4-((1S,4S)-5-Ethyl-2,5-diazabicyclo[2.2.1]heptan-2-yl)phenyl)-2-(pyridin-4-yl)pyrazolo[1,5-a]pyrimidin-3-yl)-2-fluorophenol], the IC50 (read-out: Mean IC50) amounted to 0.0005 µM.

As to `CC(=O)N1C[C@@H]2C[C@H]1CN2c1ccc(-c2ccnc3c(-c4ccc(F)c(O)c4)c(-c4ccncc4)nn23)cc1` [Example 39, 1-((1S,4S)-5-(4-(3-(4-Fluoro-3-hydroxyphenyl)-2-(pyridin-4-yl)pyrazolo[1,5-a]pyrimidin-7-yl)phenyl)-2,5-diazabicyclo[2.2.1]heptan-2-yl)ethanone], under “read-out: Mean IC50”, the IC50 was 0.0005 µM.

Consider `Cc1ccc(-c2c(-c3ccncc3)nn3c(-c4ccc(N5C[C@@H]6C[C@H]5CN6C)nc4)ccnc23)c2cn[nH]c12` [Example 40, 3-(7-Methyl-1H-indazol-4-yl)-7-(6-((1S,4S)-5-methyl-2,5-diazabicyclo[2.2.1]heptan-2-yl)pyridin-3-yl)-2-(pyridin-4-yl)pyrazolo[1,5-a]pyrimidine], for which the IC50 (read-out: Mean IC50) was 0.0007 µM.

Consider `CN1C[C@@H]2C[C@H]1CN2c1ccc(-c2ccnc3c(-c4ccc(Cl)c5[nH]ncc45)c(-c4ccncc4)nn23)cn1` [Example 41, 3-(7-Chloro-1H-indazol-4-yl)-7-(6-((1S,4S)-5-methyl-2,5-diazabicyclo[2.2.1]heptan-2-yl)pyridin-3-yl)-2-(pyridin-4-yl)pyrazolo[1,5-a]pyrimidine], for which the IC50 (read-out: Mean IC50) is < 0.0003 µM.

Turning to `CN1C[C@@H]2C[C@H]1CN2c1ccc(-c2ccnc3c(-c4ccc(F)c5[nH]ncc45)c(-c4ccncc4)nn23)cn1` [Example 42, 3-(7-Fluoro-1H-indazol-4-yl)-7-(6-((1S,4S)-5-methyl-2,5-diazabicyclo[2.2.1]heptan-2-yl)pyridin-3-yl)-2-(pyridin-4-yl)pyrazolo[1,5-a]pyrimidine], the IC50 (read-out: Mean IC50) was found to be 0.0004 µM.

As to `CN1C[C@@H]2C[C@H]1CN2c1ccc(-c2ccnc3c(-c4cccc(C(N)=O)c4)c(-c4ccncc4)nn23)cn1` [Example 43, 3-(7-(6-((1S,4S)-5-Methyl-2,5-diazabicyclo[2.2.1]heptan-2-yl)pyridin-3-yl)-2-(pyridin-4-yl)pyrazolo[1,5-a]pyrimidin-3-yl)benzamide], where the note is “read-out: Mean IC50”, the IC50 was found to be 0.134 µM.

Take `Cc1cc(N2C[C@@H]3C[C@H]2CN3)ccc1-c1ccnc2c(-c3cccc4[nH]ncc34)c(-c3ccncc3)nn12` [Example 44, 7-(4-((1S,4S)-2,5-Diazabicyclo[2.2.1]heptan-2-yl)-2-methylphenyl)-3-(1H-indazol-4-yl)-2-(pyridin-4-yl)pyrazolo[1,5-a]pyrimidine]: the IC50 (read-out: Mean IC50) is 0.0006 µM.

The record behind these values is patent US20100029657A1, “Bridged, Bicyclic Heterocyclic or Spiro Bicyclic Heterocyclic Derivatives of Pyrazolo[1, 5-A]Pyrimidines, Methods for Preparation and Uses Thereof” (Wyeth, priority 2008, published 2010).
